In brackets after ≈: the same amount, converted by molar mass. Read-outs that look alike come from different tables or passages of the source.
How the values were obtained:
Experiment in all cases: minimal inhibitory concentration in Sabouraud medium
Assay type in all cases: cell-based
[1] = tested on: Saccharomyces cerevisiae OKI.1282; conditions: Saccharomyces cerevisiae
Text: Saccharomyces cerevisiae OKI.1282
(§1) As a medium Saboroud medium was employed.

Candida albicans CBS.562 = conditions: Candida albicans
Text: Candida albicans CBS.562 "2"
as §1

[2] = tested on: Aspergillus niger CBS.12648; conditions: Aspergillus niger
Text: Aspergillus niger CBS.12648
as §1

[3] = tested on: Penicillium digitatum CBS.31948; conditions: Penicillium digitatum
Text: Penicillium digitatum CBS.31948
as §1

[4] = tested on: Sporotrichum schenkii CBS.34035; conditions: Sporotrichum
Text: Sporotrichum schenkii CBS.34035
as §1

[5] = tested on: Trichophyton rubrum CBS.30338; conditions: Trichophyton rubrum
Text: Trichophyton rubrum CBS.30338
as §1

[6] = tested on: Trichophyton mentagrophytes CBS.50148; conditions: Trichophyton mentagrophytes
Text: Trichophyton mentagrophytes CBS.50148
as §1

[7] = tested on: Epidermophyton floccosum OKI/IV.; conditions: Epidermophyton floccosum
Text: Epidermophyton floccosum OKI/IV.
as §1

[8] = CBS.50148, 72 h, 72 hours, read-out: minimal inhibitory concentration
[9] = CBS.50148, 144 h, 144 hours, read-out: minimal inhibitory concentration
[10] = CBS.50148, 288 h, 288 hours, read-out: minimal inhibitory concentration
[11] = 72 h, read-out: minimal inhibitory concentration
[12] = 144 h, read-out: minimal inhibitory concentration
[13] = 288 h, read-out: minimal inhibitory concentration
[14] = CBS.50148, read-out: Minimal inhibitory concentration inhibiting the growth
[15] = read-out: Minimal inhibitory concentration inhibiting the growth

Compound	MIC ([1]; OKI.1282, 24 h, 24 hours) [µg/mL]	MIC ([1]; OKI.1282, 48 h, 48 hours) [µg/mL]	MIC ([2]; CBS.12648, 72 h, 72 hours) [µg/mL]	MIC ([2]; CBS.12648, 144 h, 144 hours) [µg/mL]	MIC ([2]; CBS.12648, 288 h, 288 hours) [µg/mL]	MIC ([3]; CBS.31948, 72 h, 72 hours) [µg/mL]	MIC ([3]; CBS.31948, 144 h, 144 hours) [µg/mL]	MIC ([3]; CBS.31948, 288 h, 288 hours) [µg/mL]	MIC ([4]; CBS.34035, 72 h, 72 hours) [µg/mL]	MIC ([4]; CBS.34035, 144 h, 144 hours) [µg/mL]	MIC ([4]; CBS.34035, 288 h, 288 hours) [µg/mL]	MIC ([5]; CBS.30338, 72 h, 72 hours) [µg/mL]	MIC ([5]; CBS.30338, 144 h, 144 hours) [µg/mL]	MIC ([5]; CBS.30338, 288 h, 288 hours) [µg/mL]	MIC [6, 8] [µg/mL]	MIC [6, 9] [µg/mL]	MIC [6, 10] [µg/mL]	MIC [7, 11] [µg/mL]	MIC [7, 12] [µg/mL]	MIC [7, 13] [µg/mL]	further results
Cc1ccccc1N1C(=O)CC(S(=O)(=O)C2CCCCC2)C1=O (stereo not shown) [1-(o-tolyl)-3-cyclohexyl-sulfonyl-pyrrolidine-2,5-dione]	25 (≈ 74.5 µM)	25 (≈ 74.5 µM)	100 (≈ 298 µM)	150 (≈ 447 µM)	150 (≈ 447 µM)	10 (≈ 29.8 µM)	50 (≈ 149 µM)	50 (≈ 149 µM)	10 (≈ 29.8 µM)	25 (≈ 74.5 µM)	50 (≈ 149 µM)	10 (≈ 29.8 µM)	25 (≈ 74.5 µM)	50 (≈ 149 µM)	10 (≈ 29.8 µM)	25 (≈ 74.5 µM)	25 (≈ 74.5 µM)	5 (≈ 14.9 µM)	10 (≈ 29.8 µM)	10 (≈ 29.8 µM)	MIC (Candida albicans CBS.562; CBS.562, 24 h, 24 hours): 75 µg/mL (≈ 224 µM); MIC (Candida albicans CBS.562; CBS.562, 48 h, 48 hours): 100 µg/mL (≈ 298 µM)
COC(=O)c1ccc(N2C(=O)CC(S(=O)(=O)C3CCCCC3)C2=O)cc1OC(C)=O (stereo not shown) [Example 7, 1-(3-Acetoxy-4-methoxycarbonyl-phenyl)-3-cyclohexyl-sulfonyl-pyrrolidine-2,5-dione]			200 (≈ 457 µM)	200 (≈ 457 µM)	200 (≈ 457 µM)	50 (≈ 114 µM)	50 (≈ 114 µM)	100 (≈ 229 µM)	50 (≈ 114 µM)	100 (≈ 229 µM)	150 (≈ 343 µM)	25 (≈ 57.1 µM)	25 (≈ 57.1 µM)	50 (≈ 114 µM)	2.5 (≈ 5.71 µM)	2.5 (≈ 5.71 µM)	2.5 (≈ 5.71 µM)	10 (≈ 22.9 µM)	10 (≈ 22.9 µM)	10 (≈ 22.9 µM)	MIC [6, 14]: 2.5 µg/mL (≈ 5.71 µM); MIC [7, 15]: 10 µg/mL (≈ 22.9 µM)
Cc1cccc(N2C(=O)CC(S(=O)(=O)C3CCCCC3)C2=O)c1 (stereo not shown) [1-m(tolyl)-3-cyclohexyl-sulfonyl-pyrrolidine-2,5-dione]	25 (≈ 74.5 µM)	25 (≈ 74.5 µM)	75 (≈ 224 µM)	100 (≈ 298 µM)	150 (≈ 447 µM)	10 (≈ 29.8 µM)	25 (≈ 74.5 µM)	25 (≈ 74.5 µM)	10 (≈ 29.8 µM)	25 (≈ 74.5 µM)	50 (≈ 149 µM)	5 (≈ 14.9 µM)	10 (≈ 29.8 µM)	25 (≈ 74.5 µM)	5 (≈ 14.9 µM)	25 (≈ 74.5 µM)	50 (≈ 149 µM)	5 (≈ 14.9 µM)	10 (≈ 29.8 µM)	25 (≈ 74.5 µM)	MIC (Candida albicans CBS.562; CBS.562, 24 h, 24 hours): 50 µg/mL (≈ 149 µM); MIC (Candida albicans CBS.562; CBS.562, 48 h, 48 hours): 100 µg/mL (≈ 298 µM)

More lines, in order of falling MIC ([3]; CBS.31948, 72 h, 72 hours), values ahead:

MIC ([1]; OKI.1282, 24 h, 24 hours) [µg/mL]	MIC ([1]; OKI.1282, 48 h, 48 hours) [µg/mL]	MIC ([2]; CBS.12648, 72 h, 72 hours) [µg/mL]	MIC ([2]; CBS.12648, 144 h, 144 hours) [µg/mL]	MIC ([2]; CBS.12648, 288 h, 288 hours) [µg/mL]	MIC ([3]; CBS.31948, 72 h, 72 hours) [µg/mL]	MIC ([3]; CBS.31948, 144 h, 144 hours) [µg/mL]	MIC ([3]; CBS.31948, 288 h, 288 hours) [µg/mL]	MIC ([4]; CBS.34035, 72 h, 72 hours) [µg/mL]	MIC ([4]; CBS.34035, 144 h, 144 hours) [µg/mL]	MIC ([4]; CBS.34035, 288 h, 288 hours) [µg/mL]	MIC ([5]; CBS.30338, 72 h, 72 hours) [µg/mL]	MIC ([5]; CBS.30338, 144 h, 144 hours) [µg/mL]	MIC ([5]; CBS.30338, 288 h, 288 hours) [µg/mL]	MIC [6, 8] [µg/mL]	MIC [6, 9] [µg/mL]	MIC [6, 10] [µg/mL]	MIC [7, 11] [µg/mL]	MIC [7, 12] [µg/mL]	MIC [7, 13] [µg/mL]	Compound	further results
25 (≈ 71.1 µM)	50 (≈ 142 µM)	75 (≈ 213 µM)	100 (≈ 285 µM)	150 (≈ 427 µM)	100 (≈ 285 µM)	100 (≈ 285 µM)	150 (≈ 427 µM)	5 (≈ 14.2 µM)	10 (≈ 28.5 µM)	10 (≈ 28.5 µM)	10 (≈ 28.5 µM)	10 (≈ 28.5 µM)	10 (≈ 28.5 µM)	2.5 (≈ 7.11 µM)	75 (≈ 213 µM)	100 (≈ 285 µM)	5 (≈ 14.2 µM)	25 (≈ 71.1 µM)	75 (≈ 213 µM)	COc1ccc(N2C(=O)CC(S(=O)(=O)C3CCCCC3)C2=O)cc1 (stereo not shown) [1-(4-Methoxyphenyl)-3-cyclohexyl-sulfonyl-pyrrolidine-2,5-dione]	MIC (Candida albicans CBS.562; CBS.562, 24 h, 24 hours): 50 µg/mL (≈ 142 µM); MIC (Candida albicans CBS.562; CBS.562, 48 h, 48 hours): 150 µg/mL (≈ 427 µM)
					50 (≈ 204 µM)	50 (≈ 204 µM)	50 (≈ 204 µM)	150 (≈ 611 µM)	150 (≈ 611 µM)	150 (≈ 611 µM)	50 (≈ 204 µM)	75 (≈ 306 µM)	75 (≈ 306 µM)	50 (≈ 204 µM)	50 (≈ 204 µM)	75 (≈ 306 µM)	25 (≈ 102 µM)	25 (≈ 102 µM)	25 (≈ 102 µM)	O=C1CC(S(=O)(=O)C2CCCCC2)C(=O)N1 (stereo not shown) [3-Cyclohexyl-sulfonyl-pyrrolidine-2,5-dione]	MIC [6, 14]: 50 µg/mL (≈ 204 µM); MIC [7, 15]: 25 µg/mL (≈ 102 µM)
